pIC50: −log10 of the molar value. Several values for one entry are separate records, joined by “and”; a condition that tells them apart may be missing. Identical values can stand only once.
Assays:
[1] = molecular target: Ba/F3-EGFR-D770_N771insSVD cells (Homo sapiens, UniProt P00533, DUP768-770, cells depend on it); assay: Ba/F3 cell survival assay, EGFR D770_N771insSVD; assay type: cell-based; details: Cell Titer-Glo, 48 h, without IL-3; Table 4; read-out: BA/F3 (insSVD) IC50
Bub1 = molecular target: T1, Bub1 (Homo sapiens, UniProt O43683); assay: Bub1 high ATP kinase assay (TR-FRET); assay type: biochemical; details: Bub1 high ATP (2 mM) IC50, TR-FRET, 2 mM ATP; Table 3
T1 construct: catalytic domain of human Bub1 (amino acids 704-1085); His6 (N); made in house; host or cells: insect cells (Hi5)
T1 sequence (O43683 704-1085): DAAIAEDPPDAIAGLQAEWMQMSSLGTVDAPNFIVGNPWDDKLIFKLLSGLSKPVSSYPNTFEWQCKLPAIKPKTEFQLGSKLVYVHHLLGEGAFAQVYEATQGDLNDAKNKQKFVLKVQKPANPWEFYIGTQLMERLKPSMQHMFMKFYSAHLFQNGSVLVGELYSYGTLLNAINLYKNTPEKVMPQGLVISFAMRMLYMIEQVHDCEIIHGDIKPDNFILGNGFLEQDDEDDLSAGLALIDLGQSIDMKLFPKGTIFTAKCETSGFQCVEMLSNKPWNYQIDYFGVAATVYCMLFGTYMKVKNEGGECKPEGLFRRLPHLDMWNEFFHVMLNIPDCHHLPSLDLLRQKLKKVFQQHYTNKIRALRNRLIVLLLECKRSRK
Procedure, shortened: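 Enzyme was His6-tagged human Bub1 catalytic domain (aa 704-1085) from Hi5 insect cells, typically about 200 ng/ml, with a biotinylated peptide substrate at high ATP. Reaction ran 60 min at 22 °C, then was stopped with EDTA. Phosphopeptide was detected by TR-FRET (anti-phosphoserine antibody, Eu-labelled anti-mouse IgG, streptavidin-XL665), read as the 665/620 nm emission ratio.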

Ba/F3-EGFR-WT cells = Ba/F3-EGFR-WT cells (Homo sapiens, UniProt P00533); assay: Ba/F3 cell survival assay, wild type EGFR; assay type: cell-based; details: Cell Titer-Glo, 48 h, with 10 ng/mL EGF; Table 4; read-out: BA/F3 (wild type) IC50
Ba/F3-EGFR-WT cells, sequence (P00533 whole entry, looked up, stated change not applied): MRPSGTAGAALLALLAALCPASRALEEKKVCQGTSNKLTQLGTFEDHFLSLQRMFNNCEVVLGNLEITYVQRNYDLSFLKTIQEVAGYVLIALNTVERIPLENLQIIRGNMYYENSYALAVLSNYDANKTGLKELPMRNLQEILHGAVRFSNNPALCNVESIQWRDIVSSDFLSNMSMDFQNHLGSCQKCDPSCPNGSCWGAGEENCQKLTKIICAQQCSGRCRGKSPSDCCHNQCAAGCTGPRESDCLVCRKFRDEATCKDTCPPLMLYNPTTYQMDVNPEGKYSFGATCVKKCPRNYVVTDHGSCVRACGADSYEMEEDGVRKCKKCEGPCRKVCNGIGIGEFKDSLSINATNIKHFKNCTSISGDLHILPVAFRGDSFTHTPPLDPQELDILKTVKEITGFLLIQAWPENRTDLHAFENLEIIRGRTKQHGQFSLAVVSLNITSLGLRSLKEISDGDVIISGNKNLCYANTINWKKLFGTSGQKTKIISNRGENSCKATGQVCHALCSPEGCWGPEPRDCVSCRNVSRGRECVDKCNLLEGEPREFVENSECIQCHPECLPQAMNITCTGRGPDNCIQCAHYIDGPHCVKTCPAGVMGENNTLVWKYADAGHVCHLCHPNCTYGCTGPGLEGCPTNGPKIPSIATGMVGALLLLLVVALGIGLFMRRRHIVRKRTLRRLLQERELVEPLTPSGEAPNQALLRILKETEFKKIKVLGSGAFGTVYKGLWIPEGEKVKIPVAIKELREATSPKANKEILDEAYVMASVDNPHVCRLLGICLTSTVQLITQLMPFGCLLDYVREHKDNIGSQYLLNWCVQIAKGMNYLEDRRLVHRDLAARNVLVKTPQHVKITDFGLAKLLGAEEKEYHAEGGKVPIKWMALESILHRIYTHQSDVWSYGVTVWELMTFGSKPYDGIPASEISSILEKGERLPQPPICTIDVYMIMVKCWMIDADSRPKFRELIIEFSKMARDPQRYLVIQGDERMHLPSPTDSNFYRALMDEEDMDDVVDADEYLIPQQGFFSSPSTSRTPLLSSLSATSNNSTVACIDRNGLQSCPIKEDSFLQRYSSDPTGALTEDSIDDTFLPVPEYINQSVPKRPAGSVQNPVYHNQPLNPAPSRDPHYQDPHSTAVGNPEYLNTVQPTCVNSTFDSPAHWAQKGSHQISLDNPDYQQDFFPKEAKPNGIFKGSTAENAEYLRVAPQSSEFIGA

[2] = molecular target: T2, EGFR with insertion SVD between D770 and N771 (mutEGFR D770_N771insSVD) (Homo sapiens, UniProt P00533, DUP768-770); assay: Exon20-Mutant-EGFR(D770_N771insSVD) kinase assay (TR-FRET); assay type: biochemical; details: 2 mM ATP, Table 2
T2 construct: amino acids R669 to A1210; made in house; host or cells: Sf9 insect cells (baculovirus)
T2 sequence (P00533 other isoform, or with tags, fused parts or gaps DUP768-770): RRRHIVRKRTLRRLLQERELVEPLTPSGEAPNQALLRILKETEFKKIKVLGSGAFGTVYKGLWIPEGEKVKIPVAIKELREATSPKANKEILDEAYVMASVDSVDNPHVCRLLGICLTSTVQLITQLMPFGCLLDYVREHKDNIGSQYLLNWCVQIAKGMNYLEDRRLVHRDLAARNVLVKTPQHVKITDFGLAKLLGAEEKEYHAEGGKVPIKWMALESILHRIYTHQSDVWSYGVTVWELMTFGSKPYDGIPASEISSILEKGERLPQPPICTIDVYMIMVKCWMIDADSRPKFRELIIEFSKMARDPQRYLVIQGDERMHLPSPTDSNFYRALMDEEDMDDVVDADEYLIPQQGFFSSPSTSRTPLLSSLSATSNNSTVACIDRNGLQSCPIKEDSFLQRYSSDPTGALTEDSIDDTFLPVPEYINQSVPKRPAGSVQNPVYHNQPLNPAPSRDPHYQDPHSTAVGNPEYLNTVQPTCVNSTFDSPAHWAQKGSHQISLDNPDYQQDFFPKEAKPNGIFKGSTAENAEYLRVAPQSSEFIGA

Ba/F3-EGFR-D770_N771insSVD cells, sequence (P00533 with tags, fused parts or gaps DUP768-770): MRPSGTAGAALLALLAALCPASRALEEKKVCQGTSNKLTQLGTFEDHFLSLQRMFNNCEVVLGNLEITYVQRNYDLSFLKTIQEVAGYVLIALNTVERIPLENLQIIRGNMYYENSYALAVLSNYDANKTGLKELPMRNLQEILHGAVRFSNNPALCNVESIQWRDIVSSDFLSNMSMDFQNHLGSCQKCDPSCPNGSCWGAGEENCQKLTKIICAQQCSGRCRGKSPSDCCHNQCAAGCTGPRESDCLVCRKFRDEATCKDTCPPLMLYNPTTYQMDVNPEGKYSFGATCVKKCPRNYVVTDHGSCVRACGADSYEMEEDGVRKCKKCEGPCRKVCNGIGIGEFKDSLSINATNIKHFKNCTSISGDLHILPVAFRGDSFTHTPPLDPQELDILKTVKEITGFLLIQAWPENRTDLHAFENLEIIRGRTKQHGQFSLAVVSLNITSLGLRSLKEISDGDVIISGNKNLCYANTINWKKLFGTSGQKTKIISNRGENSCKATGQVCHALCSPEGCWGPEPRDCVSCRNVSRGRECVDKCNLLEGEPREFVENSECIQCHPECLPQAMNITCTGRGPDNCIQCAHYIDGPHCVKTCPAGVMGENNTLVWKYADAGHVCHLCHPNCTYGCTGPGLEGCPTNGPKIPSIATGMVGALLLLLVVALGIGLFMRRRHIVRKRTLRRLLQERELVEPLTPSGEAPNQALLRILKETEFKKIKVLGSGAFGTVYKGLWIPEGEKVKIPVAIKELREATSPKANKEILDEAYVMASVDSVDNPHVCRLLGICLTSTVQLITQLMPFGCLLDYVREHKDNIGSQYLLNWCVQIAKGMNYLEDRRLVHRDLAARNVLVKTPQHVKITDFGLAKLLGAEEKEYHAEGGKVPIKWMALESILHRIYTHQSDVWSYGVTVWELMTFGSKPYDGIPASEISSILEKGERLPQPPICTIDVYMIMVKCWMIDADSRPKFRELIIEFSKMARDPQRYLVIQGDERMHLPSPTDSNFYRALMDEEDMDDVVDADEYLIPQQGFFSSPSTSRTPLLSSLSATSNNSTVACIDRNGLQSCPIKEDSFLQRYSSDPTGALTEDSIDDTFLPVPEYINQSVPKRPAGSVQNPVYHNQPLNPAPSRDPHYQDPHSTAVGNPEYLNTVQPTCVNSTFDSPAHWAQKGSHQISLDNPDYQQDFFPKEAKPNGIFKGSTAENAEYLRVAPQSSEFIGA

Row | SMILES | pIC50 (Bub1) | mutEGFR (D770_N771insSVD) kinase assay IC50 [2] [nM] | GI50 [1] | GI50 (Ba/F3-EGFR-WT cells) [nM]
1 | COc1c(Cl)cccc1Nc1c(-c2ccncc2OC[C@@H]2CCO2)[nH]c2c1C(=O)N[C@H](C)C2 [Example 6, (6R)-3-(3-chloro-2-methoxyanilino)-6-methyl-2-(3-{[(2S)-oxetan-2-yl]methoxy}pyridin-4-yl)-1,5,6,7-tetrahydro-4H-pyrrolo[3,2-c]pyridin-4-one] | 4.99 | 0.217 | 86.4 nM | 623
2 | COc1c(Cl)cccc1Nc1c(-c2ccncc2OCC2CCCCO2)[nH]c2c1C(=O)NCC2C (stereo not shown) [Example 44, 3-(3-chloro-2-methoxy-anilino)-7-methyl-2-[3-(tetrahydropyran-2-ylmethoxy)-4-pyridyl]-1,5,6,7-tetrahydropyrrolo[3,2-c]pyridin-4-one] | 5.19 | 0.195 | 40.5 nM | 594
3 | COc1c(Cl)cccc1Nc1c(-c2ccncc2OCC2CCCCO2)[nH]c2c1C(=O)NCC2C (single isomer, unassigned) [Example 45, 3-(3-chloro-2-methoxy-anilino)-7-methyl-2-[3-(tetrahydropyran-2-ylmethoxy)-4-pyridyl]-1,5,6,7-tetrahydropyrrolo[3,2-c]pyridin-4-one] | < 4.70 | 0.391 | 47.3 nM | 840
4 | COc1c(Cl)cccc1Nc1c(-c2ccncc2OCC2OCCCC2(F)F)[nH]c2c1C(=O)N[C@H](C)C2 (mixture of isomers) [Example 74, (6R)-3-(3-chloro-2-methoxy-anilino)-2-{3-[(3,3-difluorotetrahydropyran-2-yl)methoxy]-4-pyridyl}-6-methyl-1,5,6,7-tetrahydropyrrolo[3,2-c]pyridin-4-one] | < 4.70 | 0.242 | 14 nM | 457
5 | COc1c(Cl)cccc1Nc1c(-c2ccncc2OC[C@@H]2CCCO2)[nH]c2c1C(=O)NC(C(F)(F)F)C2 (single isomer, unassigned) [Example 39] | < 4.70 | 18.8 | 786 nM and > 1000 nM | 4120
6 | COc1c(Cl)cccc1Nc1c(-c2ccncc2OC[C@@H]2COCCN2C)[nH]c2c1C(=O)NCC2CCO (single isomer, unassigned) [Example 116] | 4.86 | 0.276 | 169 nM | 2030

The next compounds have a higher pIC50 (Bub1) than those just listed; values first:

Row | pIC50 (Bub1) | mutEGFR (D770_N771insSVD) kinase assay IC50 [2] [nM] | SMILES | GI50 [1] | GI50 (Ba/F3-EGFR-WT cells) [nM]
7 | 6.36 | 0.241 | COc1c(Cl)cccc1Nc1c(-c2ccncc2OCC2COCCO2)[nH]c2c1C(=O)NC1(CCC1)C2 (stereo not shown) [Example 123, 3-(3-chloro-2-methoxy-anilino)-2-[3-(1,4-dioxan-2-ylmethoxy)-4-pyridyl]spiro[5,7-dihydro-1H-pyrrolo[3,2-c]pyridine-6,1′-cyclobutane]-4-one] | 33.9 nM | 604
8 | 5.44 | 0.189 | COc1c(Cl)cccc1Nc1c(-c2ccncc2OCC(C)(C)OC)[nH]c2c1C(=O)NCC2CCO (stereo not shown) [Example 13, 3-(3-chloro-2-methoxyanilino)-7-(2-hydroxyethyl)-2-[3-(2-methoxy-2-methylpropoxy)pyridin-4-yl]-1,5,6,7-tetrahydro-4H-pyrrolo[3,2-c]pyridin-4-one] | 35 nM | 339
9 | 6.02 | 0.525 | COc1c(Cl)cccc1Nc1c(-c2ccncc2OC[C@@H]2CCCO2)[nH]c2c1C(=O)NCC2CCC(F)(F)F (single isomer, unassigned) [Example 98] | 18.1 nM | 444
10 | 5.39 | 0.179 | COc1c(Cl)cccc1Nc1c(-c2ccncc2OCC2OCCC2(F)F)[nH]c2c1C(=O)N[C@H](C)C2 (single isomer, unassigned) [Example 73] | 55.3 nM | 643
